US20200338045A1, “ISOINDOLINE COMPOSITIONS AND METHODS FOR TREATING NEURODEGENERATIVE DISEASE” (priority 2017, published 2020)
“Also recorded” adds a separate entry of the source. Like-named read-outs stand apart in the source and are kept apart here.

Key:
Type in all cases: in vivo, human
[1] = Phase 1b/2a clinical trial (COG0102): safety and tolerability; details: for Mild TEAEs-n (%) / Moderate TEAEs-n (%) / SAEs-n (%) / Severe TEAEs-n (%) / TEAEs-n (%): once daily 28 days
Procedure: Safety and pharmacokinetics were primary objectives of the study, with changes in molecular biomarkers and cognitive outcomes identified as an exploratory objective. […]
(§1) This trial (ClinicalTrials.gov NCT02907567) was a randomized, double-blind, placebo-controlled clinical trial in mild to moderate Alzheimer's patients (MMSE 18-26) (See FIG. 1 for clinical trial design). The trial was conducted at six sites in Australia. Patients were randomized into placebo (n=5) or CT1812-treated groups: 90 mg (n=4), 280 mg (n=5) or 560 mg (n=5) and treated once daily for 28 days. Clinical chemistry was done at Sydpath (Sydney, AU). Pharmacokinetics were done at CPR Pharma Services (Adelaide, AU). Cerebrospinal fluid samples were taken at screening and day 21-28 of treatment and aliquoted. Plasma samples were taken at screening or Day 1 (one sample) and day 14-28, then spun down to separate plasma and aliquoted. One set of CSF samples was analyzed for Alzheimer's disease biomarkers; protein measurements (Aβ42, A1340, total tau, tau phosphorylated at threonine 181 (phosphorylated tau), NFL and neurogranin) were performed using commercially available ELISA assays from Fujirebio according to the manufacturer's instructions (INNOTEST β-AMYLOID(1-42), INNOTEST β-AMYLOID(1-40), INNOTEST hTau Ag, INNOTEST PHOSPHO-TAU(181P), Uman Diagnostics NFL assay). Neurogranin was measured with a sandwich ELISA method using antibodies Ng2 and Ng22 developed at the University of Gotteborg (Kvartsberg et al. 2015). Identical aliquots of CSF, and plasma were analyzed for protein expression changes via LC/MSMS at Caprion (see below).

[2] = Phase 1 single ascending dose (SAD)/food-effect plasma pharmacokinetics; details: for Cmax / Tmax / AUC(0-inf) / half-life: human, plasma, oral; for AUC(0-inf): read-out: AUC0-inf (mean)
Procedure: Part A was a single ascending dose cohort study in which healthy, young subjects (less than 65 years old) received one dose of study drug in the morning after an overnight fast. Cohort dosing started at 10 mg and increased to 30 mg, 90 mg, 180 mg, 450 mg, and 1120 mg in subsequent cohorts. Six drug-treated and two placebo-treated subjects were randomized in each cohort. A seventh cohort of six subjects each received a single 90 mg dose of drug 30 min. after a meal. Following completion of all safety assessments and blood draws for PK analyses, subjects were discharged on Day 3.
In Part A, blood draws for assessment of PK parameters occurred pre-dose and at 15, 30, 45, 60, and 90 minutes post dose as well as at 2, 3, 4, 8, 12, 24, 36, and 48 hours post dose. […] In Part B, blood samples for plasma PK analysis were taken on Day 1 at pre-dose and at 2 hours post-dose, on Day 3 at pre-dose and at 15, 30 and 45 minutes and 1, 2, 3, 4, 8, 12 and 24 hours post-dose, on Days 4, 6, 8 and 10 at pre-dose and at 1.5 hours post-dose and following the final dose on Day 14 at pre-dose and 15, 30 and 45 minutes and 1, 2, 4, 8, 12, 24, 36 and 48 hours post-dose.
This was assessed by analysis of variance (ANOVA) of log-transformed Cmax, AUC0-24, AUC0-48, and/or AUC0-inf, using a model with factors for treatment (fed status or age [young vs. elderly] status) and subject within sequence. Treatment mean differences and 90% confidence intervals of the log transformed PK parameters were back-transformed, to present the geometric least squares means ratios and 90% confidence limits.

[3] = system: neurogranin, Aβ, tau, NFL in CSF; test: CSF Alzheimer's disease biomarkers by ELISA (COG0102); details: for neurogranin reduced: 28 days
Procedure: as §1

[4] = Phase 1 MAD cognitive testing in healthy elderly cohort
Procedure: The Alzheimer's Disease Assessment Scale-Cognition Subscale (ADAS-Cog 13) and a cognitive battery (including the category fluency test, controlled word association test, WMS-R digit span, digit symbol substitution test, and Rey Auditory Verbal Learning Test) were administered to subjects in the elderly cohort at baseline and on Day 14.

[5] = 30 mg, single 30 mg, fasted (n = 6)
[6] = 90 mg, single 90 mg, fasted (n = 6)
[7] = 90 mg, single 90 mg, fed (n = 6)
[8] = 180 mg, single 180 mg, fasted (n = 6)
[9] = 450 mg, single 450 mg, fasted (n = 6)
[10] = 1120 mg, single 1120 mg, fasted (n = 6)
[11] = single 90 mg, geometric least-squares mean

## CC(C)(C)Oc1cc(CCC(C)(C)N2Cc3ccc(S(C)(=O)=O)cc3C2)ccc1O [CT1812]
[1]; 90 mg (as in Table 3)
  Headache-n (%): 1 (25%) n (%)
  Lymphocytopenia-n (%): 0 (0%) n (%)
  Nausea-n (%): 0 (0%) n (%)
  Vomiting-n (%): 0 (0%) n (%)
[1]; 90 mg (n = 4)
  Mild TEAEs-n (%): 4 (100%) n (%)
  Moderate TEAEs-n (%): 0 (0%) n (%)
  SAEs-n (%): 0 (0%) n (%)
  Severe TEAEs-n (%): 0 (0%) n (%)
  TEAEs-n (%): 3 (75%) n (%)
[1]; 280 mg (as in Table 3)
  Headache-n (%): 0 (0%) n (%)
  Lymphocytopenia-n (%): 0 (0%) n (%)
  Nausea-n (%): 0 (0%) n (%)
  Vomiting-n (%): 0 (0%) n (%)
[1]; 280 mg (n = 5)
  Mild TEAEs-n (%): 3 (60%) n (%)
  Moderate TEAEs-n (%): 1 (20%) n (%)
  SAEs-n (%): 0 (0%) n (%)
  Severe TEAEs-n (%): 0 (0%) n (%)
  TEAEs-n (%): 4 (80%) n (%)
[1]; 560 mg (as in Table 3)
  Headache-n (%): 2 (40%) n (%)
  Nausea-n (%): 2 (40%) n (%)
  Vomiting-n (%): 2 (40%) n (%)
[1]; 560 mg (n = 5)
  Mild TEAEs-n (%): 5 (100%) n (%)
  Moderate TEAEs-n (%): 3 (60%) n (%)
  SAEs-n (%): 0 (0%) n (%)
  Severe TEAEs-n (%): 0 (0%) n (%)
  TEAEs-n (%): 5 (100%) n (%)
[1]; 90, 280 and 560 mg once daily 28 days, mild to moderate Alzheimer's patients
  safety and tolerability: generally safe and well tolerated
[1]; one participant at 560 mg, resolved by end of study, no increase in bilirubin
  ALT: ~4.7 ×ULN
[2]; 90 mg fed vs. fasted
  food effect on CT1812 exposure: not considered clinically significant; also recorded: no significant difference
[2]; SAD 10 mg to 1120 mg
  Cmax and AUC / plasma concentration vs dose: dose proportional; also recorded: slightly greater than proportional with dose; also recorded: slightly greater than dose proportionally
[2]; 10 mg, single 10 mg, fasted, Day 1 (n = 6)
  Cmax: 5.07 ng/mL
[2]; 10 mg, single 10 mg, fasted, Day 1 (n = 6), read-out: Tmax (median)
  Tmax: 1.5 h
[2]; 10 mg, single 10 mg, fasted, Day 1, n = 5
  AUC(0-inf): 30.6 ng·h/mL
[2]; 10 mg, single 10 mg, fasted, Day 1, n = 5, read-out: t1/2 (mean) (converted)
  half-life: 12 h
[2]; [5]
  Cmax: 19.5 ng/mL
  AUC(0-inf): 77.2 ng·h/mL
[2]; 30 mg, single 30 mg, fasted (n = 6), read-out: Tmax (median)
  Tmax: 0.88 h
[2]; 30 mg, single 30 mg, fasted (n = 6), read-out: t1/2 (mean) (converted)
  half-life: 14 h
[2]; [6]
  Cmax: 109 ng/mL
  AUC(0-inf): 305 ng·h/mL
[2]; 90 mg, single 90 mg, fasted (n = 6), read-out: Tmax (median)
  Tmax: 1.25 h
[2]; 90 mg, single 90 mg, fasted (n = 6), read-out: t1/2 (mean) (converted)
  half-life: 12.1 h
[2]; [7]
  Cmax: 81.7 ng/mL
  AUC(0-inf): 261 ng·h/mL
[2]; 90 mg, single 90 mg, fed (n = 6), read-out: Tmax (median)
  Tmax: 1.5 h
[2]; 90 mg, single 90 mg, fed (n = 6), read-out: t1/2 (mean) (converted)
  half-life: 11.6 h
[2]; [8]
  Cmax: 161 ng/mL
  AUC(0-inf): 478 ng·h/mL
[2]; 180 mg, single 180 mg, fasted (n = 6), read-out: Tmax (median)
  Tmax: 1.25 h
[2]; 180 mg, single 180 mg, fasted (n = 6), read-out: t1/2 (mean) (converted)
  half-life: 11.1 h
[2]; [9]
  Cmax: 504 ng/mL
  AUC(0-inf): 1750 ng·h/mL
[2]; 450 mg, single 450 mg, fasted (n = 6), read-out: Tmax (median)
  Tmax: 1.5 h
[2]; 450 mg, single 450 mg, fasted (n = 6), read-out: t1/2 (mean) (converted)
  half-life: 12.2 h
[2]; [10]
  Cmax: 1460 ng/mL
  AUC(0-inf): 6320 ng·h/mL
[2]; 1120 mg, single 1120 mg, fasted (n = 6), read-out: Tmax (median)
  Tmax: 1.5 h
[2]; 1120 mg, single 1120 mg, fasted (n = 6), read-out: t1/2 (mean) (converted)
  half-life: 11.8 h
[2]; part A (SAD), 10-1120 mg, read-out: median Tmax in plasma, range over doses
  Tmax: 0.88 to 1.5 h
[2]; part A (SAD), read-out: apparent mean half-life, range over doses
  half-life: 11.1 to 14 h
[2]; [11]
  AUC0-48h lower under fed vs fasted conditions: ~20%
  AUC0-inf lower under fed vs fasted conditions: ~20%
  Cmax lower under fed vs fasted conditions: approximately 40%
[3]; 90 mg dose group
  neurogranin reduced: 33%
[3]; ELISA, direction of change
  Neurogranin, With CT1812: reduced and decreased and ↓*
[3]; before and after treatment
  Aβ, tau and NFL biomarker levels: remain unchanged
[3]; pooled CT1812-treated group
  neurogranin reduced: 17.6%
[4]; healthy elderly cohort, 560 mg, day zero vs day 14
  cognitive scores before vs after treatment: similar
[4]; healthy elderly, 560 mg for 14 days (N = 7), Day 14, Day 0: 9.6 (4.2)
  COWAT (Trial 2), Mean (SD): 10.6 (5.1)
[4]; healthy elderly, 560 mg for 14 days (N = 7), Day 14, Day 0: 11.3 (5.7)
  COWAT (Trial 1), Mean (SD): 12.6 (4.5)
[4]; healthy elderly, 560 mg for 14 days (N = 7), Day 14, Day 0: 14.6 (5.7)
  COWAT (Trial 3), Mean (SD): 15.1 (3.7)
[4]; healthy elderly, 560 mg for 14 days (N = 7), Day 14, Day 0: 17.3 (3.9)
  RAVLT, Mean (SD): 18.7 (3.1)
[4]; healthy elderly, 560 mg for 14 days (N = 7), Day 14, Day 0: 17.9 (3.3)
  WMS-R (Digit Span), Mean (SD): 17.9 (3.3)
[4]; healthy elderly, 560 mg for 14 days (N = 7), Day 14, Day 0: 18.4 (5.5)
  CFT, Mean (SD): 19.7 (2.4)
[4]; healthy elderly, 560 mg for 14 days (N = 7), Day 14, Day 0: 78.3 (11.0)
  DSST, Mean (SD): 80 (9.6)
